Results reported in US8188135B2, “Compounds as cannabinoid receptor ligands” (priority 2008, dated 2012).
Where two headings read alike, the source gives them in different places.

What was measured:
human CB2 receptors = target: T1, human CB2 receptors (Homo sapiens, UniProt P34972); experiment: human CB2 radioligand binding assay ([3H]CP 55,940 competition); settings: HEK293 membranes, 0.5 nM [3H]CP 55,940
T1 construct: expressed in transfected cells; host or cells: HEK293
Procedure, shortened: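 Displacement of 0.5 nM [3H]CP 55,940 over 0.01 nM-10 μM test compound, measured on human CB2 membranes from stably transfected HEK293 cells. Incubation 90 min at 30 °C in Tris/EDTA/MgCl2/BSA, pH 7.4, then filter-bound radioactivity counted; 10 μM unlabeled CP 55,940 defined nonspecific binding.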

Rat CB1 = target: T2, Rat CB1 (Rattus norvegicus, UniProt P20272); experiment: rat CB1 cyclase functional assay (HitHunter cAMP); type: cell-based; settings: HEK cells, forskolin 37 μM
T2 construct: expressed in transfected cells; host or cells: HEK
T2 sequence (P20272 whole entry): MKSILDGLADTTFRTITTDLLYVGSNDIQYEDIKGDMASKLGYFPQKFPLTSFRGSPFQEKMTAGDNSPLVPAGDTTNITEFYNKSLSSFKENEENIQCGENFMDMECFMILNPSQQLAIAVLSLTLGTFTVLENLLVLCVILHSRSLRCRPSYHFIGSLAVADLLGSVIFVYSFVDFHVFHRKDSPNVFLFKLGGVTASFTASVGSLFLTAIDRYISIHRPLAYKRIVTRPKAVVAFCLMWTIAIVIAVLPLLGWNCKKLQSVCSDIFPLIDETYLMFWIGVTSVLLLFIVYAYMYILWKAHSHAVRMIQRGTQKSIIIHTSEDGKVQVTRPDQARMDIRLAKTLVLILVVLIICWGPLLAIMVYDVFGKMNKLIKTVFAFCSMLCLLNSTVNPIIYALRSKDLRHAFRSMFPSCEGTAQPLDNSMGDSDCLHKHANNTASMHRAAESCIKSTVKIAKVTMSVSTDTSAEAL
Description: (§1) The cyclase functional assays were performed using the HitHunter™ cAMP assay kit from DiscoveRx (Fremont, Calif.) according to vendor's protocol. Briefly, HEK cells expressing CB2 or CB1 receptors (rat or human) were detached using cell dissociation buffer (Invitrogen, Carlsbad, Calif.), dispersed and placed in suspension at 10,000 cells per well in 96 well plates prior to the assay. Cell suspensions were incubated at 37° C. for 20 min with variable concentrations of test ligands and or 10 μM CP 55,940-positive control in the presence of a fixed concentration of forskolin (18 μM for rat CB2 and 37 μM for rat CB1) in Dulbescco's phosphate-buffered saline (Invitrogen, Carlsbad, Calif.) supplemented with bovine serum albumin (0.01% final concentration). The reactions were terminated by the addition of lysis buffer and the luminescence was detected following the procedure according to the manufacturer's instructions. EC50 values were calculated using sigmoidal dose-response curve fitting from Prism (GraphPad).

rat CB2 [1] = target: T3, rat CB2 (Rattus norvegicus, UniProt Q9QZN9); experiment: rat CB2 cyclase functional assay (HitHunter cAMP); type: cell-based; set-up: expressed in transfected cells; host or cells: HEK; settings: HEK cells, forskolin 18 μM
T3 sequence (Q9QZN9 1-360): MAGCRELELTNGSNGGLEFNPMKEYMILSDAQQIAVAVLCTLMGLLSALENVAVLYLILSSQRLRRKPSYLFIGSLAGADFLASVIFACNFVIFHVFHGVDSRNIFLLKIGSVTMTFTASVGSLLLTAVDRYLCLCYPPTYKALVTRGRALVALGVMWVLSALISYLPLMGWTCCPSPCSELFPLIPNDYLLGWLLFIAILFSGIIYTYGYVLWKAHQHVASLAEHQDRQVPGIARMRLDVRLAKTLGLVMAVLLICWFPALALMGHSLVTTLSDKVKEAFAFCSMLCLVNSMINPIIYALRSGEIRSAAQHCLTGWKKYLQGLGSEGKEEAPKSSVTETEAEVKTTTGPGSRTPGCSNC
Description: as §1

rat CB2 [2] = target: T3, rat CB2; experiment: rat CB2 radioligand binding assay ([3H]CP 55,940 competition); set-up: expressed in transfected cells; host or cells: HEK293; settings: HEK293 membranes, 0.5 nM [3H]CP 55,940
Procedure, shortened: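 Competition binding against 0.5 nM [3H]CP 55,940 (pH 7.4 buffer with 0.5 mg/mL BSA, 30 °C, 45 min), with displacers spanning 0.01 nM–10 μM at five concentrations. Receptor source: stably transfected HEK293 membranes, 20 μg/well. Nonspecific binding defined by 10 μM unlabeled CP 55,940; readout by filtration and counting.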

T1 sequence (P34972 whole entry): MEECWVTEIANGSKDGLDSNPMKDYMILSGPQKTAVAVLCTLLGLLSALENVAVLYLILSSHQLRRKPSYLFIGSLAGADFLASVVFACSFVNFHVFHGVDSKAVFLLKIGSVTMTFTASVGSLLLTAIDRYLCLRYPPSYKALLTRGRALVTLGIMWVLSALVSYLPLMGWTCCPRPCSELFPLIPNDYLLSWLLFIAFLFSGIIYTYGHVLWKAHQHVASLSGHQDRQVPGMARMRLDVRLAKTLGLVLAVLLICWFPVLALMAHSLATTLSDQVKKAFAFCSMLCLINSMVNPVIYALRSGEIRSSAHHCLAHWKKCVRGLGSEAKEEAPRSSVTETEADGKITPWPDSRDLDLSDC

CC1CCC(COc2ccc(C(F)(F)F)cc2C(=O)N=c2cc(C(C)(C)C)n(C)n2CC2CCCO2)O1 (single isomer, unassigned) [Example 37]
Ki (human CB2 receptors; human CB2 (Ki, nM)): 57 nM
EC50 (Rat CB1; Rat CB1 cyclase (EC50, nM)): 8590 nM
EC50 (rat CB2 [1]; rat CB2 cyclase (EC50, nM)): 0.45 nM
Ki (rat CB2 [2]; rat CB2 (Ki, nM)): 16 nM

Cn1c(C(C)(C)C)c/c(=N\C(=O)c2cc(C(F)(F)F)ccc2OC[C@H]2CCCO2)n1C[C@H]1CCCO1 [Example 1, N-{(3E)-5-tert-butyl-1-methyl-2-[(2R)-tetrahydrofuran-2-ylmethyl]-1,2-dihydro-3H-pyrazol-3-ylidene}-2-[(2R)-tetrahydrofuran-2-ylmethoxy]-5-(trifluoromethyl)benzamide]
Ki (human CB2 receptors; human CB2 (Ki, nM)): 51 nM
EC50 (Rat CB1; Rat CB1 cyclase (EC50, nM)): 5510 nM
EC50 (rat CB2 [1]; rat CB2 cyclase (EC50, nM)): 1.1 nM
Ki (rat CB2 [2]; rat CB2 (Ki, nM)): 23 nM

Cn1c(C(C)(C)C)c/c(=N\C(=O)c2cc(C(F)(F)F)ccc2OC[C@@H]2CCN2)n1C[C@H]1CCCO1 [Example 2, 2-[(2S)-azetidin-2-ylmethoxy]-N-{(3E)-5-tert-butyl-1-methyl-2-[(2R)-tetrahydrofuran-2-ylmethyl]-1,2-dihydro-3H-pyrazol-3-ylidene}-5-(trifluoromethyl)benzamide]
Ki (human CB2 receptors; human CB2 (Ki, nM)): > 1000 nM
EC50 (Rat CB1; Rat CB1 cyclase (EC50, nM)): 11200 nM
EC50 (rat CB2 [1]; rat CB2 cyclase (EC50, nM)): 0.77 nM
Ki (rat CB2 [2]; rat CB2 (Ki, nM)): 195 nM

Cn1c(C(C)(C)C)c/c(=N\C(=O)c2cc(C(F)(F)F)ccc2OCC2CCS(=O)(=O)C2)n1C[C@H]1CCCO1 (stereo partly drawn) [Example 6, N-{(3E)-5-tert-butyl-1-methyl-2-[(2R)-tetrahydrofuran-2-ylmethyl]-1,2-dihydro-3H-pyrazol-3-ylidene}-2-[(1,1-dioxidotetrahydrothien-3-yl)methoxy]-5-(trifluoromethyl)benzamide]
Ki (human CB2 receptors; human CB2 (Ki, nM)): 203 nM
EC50 (Rat CB1; Rat CB1 cyclase (EC50, nM)): 11200 nM
EC50 (rat CB2 [1]; rat CB2 cyclase (EC50, nM)): 7.5 nM
Ki (rat CB2 [2]; rat CB2 (Ki, nM)): 78 nM

CCCCn1nc(C(C)(C)C)s/c1=N\C(=O)c1cc(C(F)(F)F)ccc1OCC1CCCCN1C (centres unmarked) [Example 7, N-[(2Z)-3-butyl-5-tert-butyl-1,3,4-thiadiazol-2(3H)-ylidene]-2-[(1-methylpiperidin-2-yl)methoxy]-5-(trifluoromethyl)benzamide]
Ki (human CB2 receptors; human CB2 (Ki, nM)): 2.5 nM
EC50 (Rat CB1; Rat CB1 cyclase (EC50, nM)): 1060 nM
EC50 (rat CB2 [1]; rat CB2 cyclase (EC50, nM)): 2.9 nM
Ki (rat CB2 [2]; rat CB2 (Ki, nM)): 2.5 nM

Cn1c(C(C)(C)C)c/c(=N\C(=O)c2cc(C(F)(F)F)ccc2OC[C@@H]2CCCO2)n1C[C@H]1CCCO1 [Example 8, N-{(3E)-5-tert-butyl-1-methyl-2-[(2R)-tetrahydrofuran-2-ylmethyl]-1,2-dihydro-3H-pyrazol-3-ylidene}-2-[(2S)-tetrahydrofuran-2-ylmethoxy]-5-(trifluoromethyl)benzamide]
Ki (human CB2 receptors; human CB2 (Ki, nM)): 13 nM
EC50 (Rat CB1; Rat CB1 cyclase (EC50, nM)): 6340 nM
EC50 (rat CB2 [1]; rat CB2 cyclase (EC50, nM)): 0.59 nM
Ki (rat CB2 [2]; rat CB2 (Ki, nM)): 4.3 nM

Cn1c(C(C)(C)C)c/c(=N\C(=O)c2cc(C(F)(F)F)ccc2OC[C@@H]2CCC(=O)N2)n1C[C@H]1CCCO1 [Example 12, N-{(3E)-5-tert-butyl-1-methyl-2-[(2R)-tetrahydrofuran-2-ylmethyl]-1,2-dihydro-3H-pyrazol-3-ylidene}-2-{[(2S)-5-oxopyrrolidin-2-yl]methoxy}-5-(trifluoromethyl)benzamide]
Ki (human CB2 receptors; human CB2 (Ki, nM)): 99 nM
EC50 (Rat CB1; Rat CB1 cyclase (EC50, nM)): > 27000 nM
EC50 (rat CB2 [1]; rat CB2 cyclase (EC50, nM)): 0.79 nM
Ki (rat CB2 [2]; rat CB2 (Ki, nM)): 46 nM

Cn1c(C(C)(C)C)c/c(=N\C(=O)c2cc(C(F)(F)F)ccc2OCCN2CCCC2=O)n1C[C@H]1CCCO1 [Example 15]
Ki (human CB2 receptors; human CB2 (Ki, nM)): 193 nM
EC50 (Rat CB1; Rat CB1 cyclase (EC50, nM)): > 27000 nM
EC50 (rat CB2 [1]; rat CB2 cyclase (EC50, nM)): 1.4 nM
Ki (rat CB2 [2]; rat CB2 (Ki, nM)): 203 nM

Cn1c(C(C)(C)C)c/c(=N\C(=O)c2cc(C(F)(F)F)ccc2OC[C@@H]2COC(C)(C)O2)n1C[C@H]1CCCO1 [Example 16, N-{(3E)-5-tert-butyl-1-methyl-2-[(2R)-tetrahydrofuran-2-ylmethyl]-1,2-dihydro-3H-pyrazol-3-ylidene}-2-{[(4R)-2,2-dimethyl-1,3-dioxolan-4-yl]methoxy}-5-(trifluoromethyl)benzamide]
Ki (human CB2 receptors; human CB2 (Ki, nM)): 40 nM
EC50 (Rat CB1; Rat CB1 cyclase (EC50, nM)): > 27000 nM
EC50 (rat CB2 [1]; rat CB2 cyclase (EC50, nM)): 0.47 nM
Ki (rat CB2 [2]; rat CB2 (Ki, nM)): 23 nM

Cn1c(C(C)(C)C)c/c(=N\C(=O)c2cc(C(F)(F)F)ccc2OCC[C@H]2COC(C)(C)O2)n1C[C@H]1CCCO1 [Example 17, N-{(3E)-5-tert-butyl-1-methyl-2-[(2R)-tetrahydrofuran-2-ylmethyl]-1,2-dihydro-3H-pyrazol-3-ylidene}-2-{2-[(4S)-2,2-dimethyl-1,3-dioxolan-4-yl]ethoxy}-5-(trifluoromethyl)benzamide]
Ki (human CB2 receptors; human CB2 (Ki, nM)): 25 nM
EC50 (Rat CB1; Rat CB1 cyclase (EC50, nM)): > 27000 nM
EC50 (rat CB2 [1]; rat CB2 cyclase (EC50, nM)): 0.7 nM
Ki (rat CB2 [2]; rat CB2 (Ki, nM)): 36 nM

Cn1c(C(C)(C)C)c/c(=N\C(=O)c2cc(C(F)(F)F)ccc2OC[C@H]2COC(C)(C)O2)n1C[C@H]1CCCO1 [Example 18, N-{(3E)-5-tert-butyl-1-methyl-2-[(2R)-tetrahydrofuran-2-ylmethyl]-1,2-dihydro-3H-pyrazol-3-ylidene}-2-{[(4S)-2,2-dimethyl-1,3-dioxolan-4-yl]methoxy}-5-(trifluoromethyl)benzamide]
Ki (human CB2 receptors; human CB2 (Ki, nM)): 37 nM
EC50 (Rat CB1; Rat CB1 cyclase (EC50, nM)): > 27000 nM
EC50 (rat CB2 [1]; rat CB2 cyclase (EC50, nM)): 1.8 nM
Ki (rat CB2 [2]; rat CB2 (Ki, nM)): 22 nM

Cn1c(C(C)(C)C)c/c(=N\C(=O)c2cc(C(F)(F)F)ccc2NC[C@@H]2CCCO2)n1C[C@H]1CCCO1 [Example 21, N-{(3E)-5-tert-butyl-1-methyl-2-[(2R)-tetrahydrofuran-2-ylmethyl]-1,2-dihydro-3H-pyrazol-3-ylidene}-2-{[(2S)-tetrahydrofuran-2-ylmethyl]amino}-5-(trifluoromethyl)benzamide]
Ki (human CB2 receptors; human CB2 (Ki, nM)): 0.9 nM
EC50 (Rat CB1; Rat CB1 cyclase (EC50, nM)): 901 nM
EC50 (rat CB2 [1]; rat CB2 cyclase (EC50, nM)): 0.19 nM
Ki (rat CB2 [2]; rat CB2 (Ki, nM)): 0.6 nM

Cn1c(C(C)(C)C)c/c(=N\C(=O)c2cc(C(F)(F)F)ccc2NC[C@H]2CCCO2)n1C[C@H]1CCCO1 [Example 23, N-{(3E)-5-tert-butyl-1-methyl-2-[(2R)-tetrahydrofuran-2-ylmethyl]-1,2-dihydro-3H-pyrazol-3-ylidene}-2-{[(2R)-tetrahydrofuran-2-ylmethyl]amino}-5-(trifluoromethyl)benzamide]
Ki (human CB2 receptors; human CB2 (Ki, nM)): 4.7 nM
EC50 (Rat CB1; Rat CB1 cyclase (EC50, nM)): 3420 nM
EC50 (rat CB2 [1]; rat CB2 cyclase (EC50, nM)): 0.37 nM
Ki (rat CB2 [2]; rat CB2 (Ki, nM)): 2.8 nM

Cn1c(C(C)(C)C)c/c(=N\C(=O)c2cc(C(F)(F)F)ccc2OC[C@H]2OCC[C@H]2F)n1C[C@H]1CCCO1 [Example 24]
Ki (human CB2 receptors; human CB2 (Ki, nM)): 16 nM
EC50 (Rat CB1; Rat CB1 cyclase (EC50, nM)): 9200 nM
EC50 (rat CB2 [1]; rat CB2 cyclase (EC50, nM)): 0.28 nM
Ki (rat CB2 [2]; rat CB2 (Ki, nM)): 20 nM

Cn1c(C(C)(C)C)c/c(=N\C(=O)c2cc(C(F)(F)F)ccc2OC[C@@H]2C=CCO2)n1C[C@H]1CCCO1 [Example 25, N-{(3E)-5-tert-1-methyl-2-[(2R)-tetrahydrofuran-2-ylmethyl]-1,2-dihydro-3H-pyrazol-3-ylidene}-2-[(2S)-2,5-dihydrofuran-2-ylmethoxy]-5-(trifluoromethyl)benzamide]
Ki (human CB2 receptors; read-out: human CB2 (Ki)): 31 nM
EC50 (Rat CB1; read-out: Rat CB1 cyclase (EC50)): 531 nM
EC50 (rat CB2 [1]; read-out: rat CB2 cyclase (EC50)): 0.3 nM
Ki (rat CB2 [2]; read-out: rat CB2 (Ki)): 20 nM

Cn1c(C(C)(C)C)c/c(=N\C(=O)c2cc(C(F)(F)F)ccc2OC[C@@H]2CCCO2)n1CC1CC1 [Example 27, N-[(3E)-5-tert-butyl-2-(cyclopropylmethyl)-1-methyl-1,2-dihydro-3H-pyrazol-3-ylidene]-2-[(2S)-tetrahydrofuran-2-ylmethoxy]-5-(trifluoromethyl)benzamide]
Ki (human CB2 receptors; human CB2 (Ki, nM)): 23 nM
EC50 (Rat CB1; Rat CB1 cyclase (EC50, nM)): 3370 nM
EC50 (rat CB2 [1]; rat CB2 cyclase (EC50, nM)): 0.2 nM
Ki (rat CB2 [2]; rat CB2 (Ki, nM)): 9.4 nM

Cn1c(C(C)(C)C)c/c(=N\C(=O)c2cc(C(F)(F)F)cc(Cl)c2OC[C@@H]2CCCO2)n1C[C@H]1CCCO1 [Example 28, N-{(3E)-5-tert-butyl-1-methyl-2-[(2R)-tetrahydrofuran-2-ylmethyl]-1,2-dihydro-3H-pyrazol-3-ylidene}-3-chloro-2-[(2S)-tetrahydrofuran-2-ylmethoxy]-5-(trifluoromethyl)benzamide]
Ki (human CB2 receptors; human CB2 (Ki, nM)): 44 nM
EC50 (Rat CB1; Rat CB1 cyclase (EC50, nM)): 8090 nM
EC50 (rat CB2 [1]; rat CB2 cyclase (EC50, nM)): 0.91 nM
Ki (rat CB2 [2]; rat CB2 (Ki, nM)): 15 nM
